Experiment [1] has as its system reactive oxygen species in myocardium. Briefly: DHE staining of myocardium (superoxide detection, oxidative stress) after I/R. It counts as in vivo, mouse (C57BL/6). As to conditions: 30 min ischemia, 2 h reperfusion; ML264 5 min prior to reopening of coronary artery; vs I/R vehicle. As to the method: (§1) The myocardial ischemia/reperfusion surgical protocol was applied as follows. Mice were anesthetized with 2% isoflurane inhalation until anesthesia was achieved. The animals' body temperature was maintained at 37 °C throughout the surgical procedure using a heating pad. A tracheal tube was placed via tracheal intubation and the respiration rate was set at 150 strokes/min with a tidal volume of 200 μL, using Minivent ventilator for mice (Model 845, Harvard Apparatus). A 1.2 cm incision was made over the left chest. After retraction of the pectoral major and minor muscles, the fourth intercostal space was exposed. […] The left anterior descending coronary artery (LAD) was then located, sutured, and ligated at a site 3-4 mm distal to the origin of the artery under the left atrium using a 6-0 silk suture. The heart was allowed to stabilize for 15 min and right after, ischemia was induced by tightening the suture against a small piece of polyethylene tube. At the end of the 30-minute ischemia period, the ligature was released for the induction of reperfusion, and then the manual evacuation of air and closure of muscle and skin were performed. The mouse was then monitored during the recovery period, which was generally completed within 3 to 5 minutes. […]
Live myocardium was isolated from mice at the time of euthanasia and stained with 20 μM dihydroethidium (DHE) for 30 min at room temperature. […] Individual nuclei were measured within each visual field using ImageJ software, and visual fields were averaged to measure mean fluorescence intensity for each mouse.
In order to unravel the mechanisms of KLF5-mediated cardiotoxicity, oxidative stress levels were evaluated at early reperfusion. […] Given the fact that inflammation and diapedesis of immune cells are important hallmarks of the post-ischemia-reperfusion response, the mRNA levels of IL-1α, IL-1β, IL-6, IL-10, and TNFα in the ischemic myocardium upon ML264 treatment were evaluated at 2 hours of reperfusion (FIGS. 51-5M) and 24 hours of reperfusion (FIGS. 5N-5Q). […]

Experiment [2] relates to Glut1. Briefly: GLUT1 protein levels after I/R. It counts as in vivo, mouse. As to conditions: ML-264 treatment; did not reach statistical significance. The protocol: (§2) The myocardial ischemia/reperfusion surgical protocol was applied as follows. Mice were anesthetized with 2% isoflurane inhalation until anesthesia was achieved. The animals' body temperature was maintained at 37 °C throughout the surgical procedure using a heating pad. A tracheal tube was placed via tracheal intubation and the respiration rate was set at 150 strokes/min with a tidal volume of 200 μL, using Minivent ventilator for mice (Model 845, Harvard Apparatus). A 1.2 cm incision was made over the left chest. After retraction of the pectoral major and minor muscles, the fourth intercostal space was exposed. […] The mouse was then monitored during the recovery period, which was generally completed within 3 to 5 minutes. […]
(§3) Isolated myocardial tissue/isolated primary murine cardiomyocytes were homogenized in radioimmunoprecipitation assay buffer (RIPA buffer) containing protease and phosphatase inhibitors (Thermo Fischer Scientific, Cat. No.: A32959). […] Relative densitometry was determined, and the β-actin protein was used as a loading control.
Finally, to test the potential involvement of GLUT1 and GLUT4 in myocardial ischemia-reperfusion injury, two compounds, namely KL-11743, a non-specific GLUT inhibitor, as well as STF-31, which is a GLUT1-specific inhibitor, were evaluated.

In experiment [3] the test system is BCL-XL. Briefly: BCL-XL anti-apoptotic protein in myocardium after I/R (Western blot). In kind it is in vivo, mouse (C57BL/6). As to conditions: ML264-treated group; 30 min ischemia, 2 h reperfusion. The protocol: (§4) The myocardial ischemia/reperfusion surgical protocol was applied as follows. Mice were anesthetized with 2% isoflurane inhalation until anesthesia was achieved. The animals' body temperature was maintained at 37 °C throughout the surgical procedure using a heating pad. A tracheal tube was placed via tracheal intubation and the respiration rate was set at 150 strokes/min with a tidal volume of 200 μL, using Minivent ventilator for mice (Model 845, Harvard Apparatus). A 1.2 cm incision was made over the left chest. After retraction of the pectoral major and minor muscles, the fourth intercostal space was exposed. […] The left anterior descending coronary artery (LAD) was then located, sutured, and ligated at a site 3-4 mm distal to the origin of the artery under the left atrium using a 6-0 silk suture. […] The mouse was then monitored during the recovery period, which was generally completed within 3 to 5 minutes. […]
as §3
(§5) In order to unravel the mechanisms of KLF5-mediated cardiotoxicity, oxidative stress levels were evaluated at early reperfusion. […]
(In general: A western blot detects proteins with antibodies after separation by electrophoresis.)

Experiment [4] concerns BAX. Briefly: BAX apoptotic protein in myocardium after I/R (Western blot). In kind it is in vivo, mouse (C57BL/6). As to conditions: ML264-treated group; 30 min ischemia, 2 h reperfusion. The protocol: as §4, §3, §5
The test system of experiment [5] is cardiac fibrosis in mice. Briefly: Masson's Trichrome staining, cardiac fibrosis in chronic model of I/R injury. In kind it is in vivo, mouse (C57BL/6). As to conditions: 30 min ischemia, 4 weeks reperfusion; two doses of ML264 at early reperfusion. As to the method:
as §1, with “At the end of the 30-minute ischemia period, the ligature was released for the induction of reperfusion, and then the manual evacuation of air and closure of muscle and skin were performed.” left out
Tissue sectioning and Masson's Trichrome staining were performed. […] Fibrotic myocardial tissue size was measured as % area with respect to the total slice area in mouse hearts imaged at 0.8×. […]

Experiment [6] relates to IL-1β. Briefly: IL-1β mRNA in ischemic myocardium. It counts as in vivo, mouse (C57BL/6). As to conditions: evaluated at 2 h and 24 h of reperfusion, vs vehicle. As to the method:
as §2
(§6) Total RNA was purified from heart tissue using the TRIzol reagent according to the instructions of the manufacturer (ThermoFischer Scientific, Cat. No.: 15596018). cDNA synthesis was performed using the Applied Biosystems High Capacity cDNA Reverse Transcription Kit (ThermoFischer Scientific, Cat. No.: 4368814) from 500 ng RNA, which had been treated with DNAase I (ThermoFischer Scientific, Cat. No.: 18068015). Quantitative real-time PCR was performed with the SYBR Select Master Mix (ThermoFischer Scientific, Cat. No.: 4472903) using the manufacturer's recommendations. […]

Experiment [7] relates to NOX4. Briefly: NOX4 protein in myocardium after I/R (Western blot). In kind it is in vivo, mouse (C57BL/6). As to conditions: ML264 treatment, 30 min ischemia, 2 h reperfusion. The protocol: as §4, §3, §5
For experiment [8], the system named is Ugp. Briefly: Ugp mRNA expression after I/R. As to conditions: ML-264 treatment. In kind it is in vivo, mouse. As to the method: as §2, §6

As for `CN(C(=O)CNC(=O)/C=C/c1cccc(Cl)c1)C1CCS(=O)(=O)CC1` [ML264], the “reactive oxygen species formation (DHE staining)” value in experiment [1] was “significant reduction”. The GLUT1 protein levels entry in experiment [2] is “trend towards suppression”. Also, the BCL-XL anti-apoptotic proteins result in experiment [3] was “upregulation”. Also, the BAX apoptotic proteins entry in experiment [4] is listed as “suppression”. In addition, the “fibrotic scar tissue formation” value in experiment [5] is listed as “significant reduction”. Also, the “IL-1β mRNA levels” value in experiment [6] is on record as “Significant suppression”. Moreover, the NOX4 protein levels result in experiment [7] is given as “suppressed”. The NOX4 levels result in experiment [7] (FIG. 5C-5E (mRNA and protein)) was “significant suppression”. For the same molecule, in experiment [8], the “relative mRNA expression of Ugp” value is on record as “did not result in a change”.

The record behind these values is patent US20260335279A1, “METHODS OF TREATING ISCHEMIA-REPERFUSION INJURIES” (University of Cincinnati, priority 2022, published 2026).
